The values that follow come from ChEMBL document CHEMBL1201862, “PubChem BioAssay data set” (2004).

The target of one assay is SUMO-activating enzyme (Homo sapiens, UniProt Q9UBT2). As to the kind of experiment: SUMOylation inhibitor hit validation, confirmation, SUMOylation inhibitor project, biochemical, AlphaScreen (AID 2018). It counts as functional. (In Alpha technology, singlet oxygen from a donor bead excites a nearby acceptor bead.)
Assay [1] deals with Peroxisome proliferator-activated receptor gamma/Nuclear receptor coactivator 1 (Homo sapiens, UniProt P37231). It counts as functional.
Peroxisome proliferator-activated receptor gamma/Nuclear receptor coactivator 1, sequence (P37231 whole entry): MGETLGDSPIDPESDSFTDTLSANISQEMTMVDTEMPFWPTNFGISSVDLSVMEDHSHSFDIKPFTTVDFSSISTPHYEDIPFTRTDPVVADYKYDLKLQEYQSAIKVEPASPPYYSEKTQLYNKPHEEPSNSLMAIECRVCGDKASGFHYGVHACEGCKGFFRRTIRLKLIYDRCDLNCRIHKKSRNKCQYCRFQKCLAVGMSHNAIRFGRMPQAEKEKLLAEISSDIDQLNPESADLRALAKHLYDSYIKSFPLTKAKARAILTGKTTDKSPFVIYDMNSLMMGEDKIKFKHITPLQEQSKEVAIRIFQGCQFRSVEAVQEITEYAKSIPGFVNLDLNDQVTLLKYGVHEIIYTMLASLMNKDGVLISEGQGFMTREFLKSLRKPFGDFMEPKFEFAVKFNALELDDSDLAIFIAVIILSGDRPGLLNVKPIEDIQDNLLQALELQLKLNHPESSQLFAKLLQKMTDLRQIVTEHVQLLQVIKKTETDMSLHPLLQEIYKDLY
Peroxisome proliferator-activated receptor gamma/Nuclear receptor coactivator 1, sequence (Q15788 whole entry, further chain): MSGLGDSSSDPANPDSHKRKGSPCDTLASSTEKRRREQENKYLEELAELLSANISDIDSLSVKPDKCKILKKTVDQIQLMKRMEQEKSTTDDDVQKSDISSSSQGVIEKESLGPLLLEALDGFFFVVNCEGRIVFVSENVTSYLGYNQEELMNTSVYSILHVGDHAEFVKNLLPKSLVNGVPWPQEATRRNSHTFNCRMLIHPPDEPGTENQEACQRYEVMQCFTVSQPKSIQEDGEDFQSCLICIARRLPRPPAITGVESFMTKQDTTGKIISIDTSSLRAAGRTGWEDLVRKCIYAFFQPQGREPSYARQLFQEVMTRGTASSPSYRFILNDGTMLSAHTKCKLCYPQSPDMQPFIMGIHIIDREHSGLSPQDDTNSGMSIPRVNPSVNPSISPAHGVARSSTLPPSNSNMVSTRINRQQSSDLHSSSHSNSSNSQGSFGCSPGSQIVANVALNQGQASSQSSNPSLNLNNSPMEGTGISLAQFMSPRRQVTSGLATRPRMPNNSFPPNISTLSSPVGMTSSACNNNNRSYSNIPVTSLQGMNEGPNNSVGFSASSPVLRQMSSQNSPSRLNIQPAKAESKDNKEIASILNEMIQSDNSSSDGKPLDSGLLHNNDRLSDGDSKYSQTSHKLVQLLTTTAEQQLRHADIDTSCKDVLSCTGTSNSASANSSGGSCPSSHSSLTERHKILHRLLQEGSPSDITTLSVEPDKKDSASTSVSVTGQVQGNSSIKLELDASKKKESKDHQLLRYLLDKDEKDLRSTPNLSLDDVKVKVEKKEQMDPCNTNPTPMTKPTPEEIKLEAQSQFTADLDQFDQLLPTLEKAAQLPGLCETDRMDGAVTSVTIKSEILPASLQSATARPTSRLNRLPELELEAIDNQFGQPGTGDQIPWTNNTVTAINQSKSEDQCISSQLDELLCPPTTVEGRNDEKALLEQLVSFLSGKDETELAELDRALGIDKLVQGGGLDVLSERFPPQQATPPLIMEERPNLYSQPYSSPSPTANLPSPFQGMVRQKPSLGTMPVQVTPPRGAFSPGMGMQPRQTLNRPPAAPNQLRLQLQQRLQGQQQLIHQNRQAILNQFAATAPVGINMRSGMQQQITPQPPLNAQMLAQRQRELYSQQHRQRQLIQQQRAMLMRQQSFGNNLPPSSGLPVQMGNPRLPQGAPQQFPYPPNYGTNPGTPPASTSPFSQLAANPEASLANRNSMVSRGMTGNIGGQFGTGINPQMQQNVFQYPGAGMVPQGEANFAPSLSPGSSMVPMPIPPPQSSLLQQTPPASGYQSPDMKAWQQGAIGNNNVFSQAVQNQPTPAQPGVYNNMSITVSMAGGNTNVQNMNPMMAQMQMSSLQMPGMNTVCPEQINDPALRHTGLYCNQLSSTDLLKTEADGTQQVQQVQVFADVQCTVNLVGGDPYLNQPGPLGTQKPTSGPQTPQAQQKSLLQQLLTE
Assay [2] deals with Peroxisome proliferator-activated receptor gamma/Nuclear receptor coactivator 2 (Homo sapiens, UniProt P37231). It counts as functional.
Peroxisome proliferator-activated receptor gamma/Nuclear receptor coactivator 2, sequence (P37231 whole entry): as the sequence (P37231 whole entry) above
Peroxisome proliferator-activated receptor gamma/Nuclear receptor coactivator 2, sequence (Q15596 whole entry, further chain): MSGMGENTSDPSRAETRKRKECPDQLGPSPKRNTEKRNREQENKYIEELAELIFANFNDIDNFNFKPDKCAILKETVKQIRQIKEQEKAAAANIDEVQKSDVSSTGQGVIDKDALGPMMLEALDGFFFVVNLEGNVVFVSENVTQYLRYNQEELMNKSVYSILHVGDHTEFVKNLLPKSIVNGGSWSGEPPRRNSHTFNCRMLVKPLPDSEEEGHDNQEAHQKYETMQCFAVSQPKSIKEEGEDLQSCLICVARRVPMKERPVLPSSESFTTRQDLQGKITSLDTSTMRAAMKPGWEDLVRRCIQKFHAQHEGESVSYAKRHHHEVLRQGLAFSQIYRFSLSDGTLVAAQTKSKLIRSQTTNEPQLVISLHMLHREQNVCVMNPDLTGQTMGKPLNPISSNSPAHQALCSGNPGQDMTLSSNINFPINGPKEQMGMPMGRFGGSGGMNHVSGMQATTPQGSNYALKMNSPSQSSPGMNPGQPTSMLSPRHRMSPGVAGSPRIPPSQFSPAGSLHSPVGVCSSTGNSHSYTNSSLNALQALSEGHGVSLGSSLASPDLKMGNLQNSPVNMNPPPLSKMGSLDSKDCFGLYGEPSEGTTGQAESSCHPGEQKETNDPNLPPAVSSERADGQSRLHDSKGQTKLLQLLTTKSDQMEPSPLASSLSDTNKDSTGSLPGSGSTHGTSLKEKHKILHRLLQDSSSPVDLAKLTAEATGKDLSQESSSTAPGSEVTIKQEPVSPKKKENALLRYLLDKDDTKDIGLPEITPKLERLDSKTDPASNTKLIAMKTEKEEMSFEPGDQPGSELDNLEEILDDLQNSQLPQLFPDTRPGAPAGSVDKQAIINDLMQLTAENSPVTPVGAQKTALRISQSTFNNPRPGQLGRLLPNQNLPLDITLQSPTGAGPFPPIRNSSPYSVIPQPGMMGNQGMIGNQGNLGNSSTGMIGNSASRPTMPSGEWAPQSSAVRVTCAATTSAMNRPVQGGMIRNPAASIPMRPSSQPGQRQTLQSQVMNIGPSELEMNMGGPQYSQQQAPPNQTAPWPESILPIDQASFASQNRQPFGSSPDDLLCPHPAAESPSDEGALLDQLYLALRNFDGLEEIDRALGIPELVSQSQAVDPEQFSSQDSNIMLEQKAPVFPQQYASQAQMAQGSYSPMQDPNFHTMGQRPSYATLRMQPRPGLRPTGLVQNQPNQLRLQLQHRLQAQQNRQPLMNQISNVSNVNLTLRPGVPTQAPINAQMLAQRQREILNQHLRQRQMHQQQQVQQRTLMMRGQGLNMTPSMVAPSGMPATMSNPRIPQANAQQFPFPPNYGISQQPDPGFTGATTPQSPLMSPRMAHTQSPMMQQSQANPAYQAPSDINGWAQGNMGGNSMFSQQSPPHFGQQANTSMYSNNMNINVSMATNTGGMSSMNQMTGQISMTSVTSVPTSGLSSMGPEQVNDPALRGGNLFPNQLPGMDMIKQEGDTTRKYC
A further assay deals with Cytochrome P450 2D6 (Homo sapiens, UniProt P10635).
In assay [3] the target is Peroxisome proliferator-activated receptor gamma/Nuclear receptor coactivator 3 (Homo sapiens, UniProt P37231). It counts as functional.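 Also: agonist potency for raising coactivator recruitment to the receptor.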
Another assay concerns the target Cytochrome P450 2C9 (Homo sapiens, UniProt P11712). The settings on record: Potency.
The next assay addresses Cytochrome P450 3A4 (Homo sapiens, UniProt P08684). Conditions: Potency.
In assay [4] the target is Disintegrin and metalloproteinase domain-containing protein 17 (Homo sapiens, UniProt P78536). The assay is described as follows: exosite inhibitors of ADAM17, dose response, biochemical (AID 743260).
The target in assay [5] is T1, Polyadenylate-binding protein 1 (Homo sapiens, UniProt P11940). The assay is described as follows: PABP1 MLLE–PAM2 interaction inhibitors, dose response, miRNA deadenylation inhibitor project, biochemical, fluorescence polarization, Cy5-PAM2 peptide, secondary (AID 602260). It counts as functional. Conditions: read-out: IC50_Mean.
T1 sequence (P11940 whole entry): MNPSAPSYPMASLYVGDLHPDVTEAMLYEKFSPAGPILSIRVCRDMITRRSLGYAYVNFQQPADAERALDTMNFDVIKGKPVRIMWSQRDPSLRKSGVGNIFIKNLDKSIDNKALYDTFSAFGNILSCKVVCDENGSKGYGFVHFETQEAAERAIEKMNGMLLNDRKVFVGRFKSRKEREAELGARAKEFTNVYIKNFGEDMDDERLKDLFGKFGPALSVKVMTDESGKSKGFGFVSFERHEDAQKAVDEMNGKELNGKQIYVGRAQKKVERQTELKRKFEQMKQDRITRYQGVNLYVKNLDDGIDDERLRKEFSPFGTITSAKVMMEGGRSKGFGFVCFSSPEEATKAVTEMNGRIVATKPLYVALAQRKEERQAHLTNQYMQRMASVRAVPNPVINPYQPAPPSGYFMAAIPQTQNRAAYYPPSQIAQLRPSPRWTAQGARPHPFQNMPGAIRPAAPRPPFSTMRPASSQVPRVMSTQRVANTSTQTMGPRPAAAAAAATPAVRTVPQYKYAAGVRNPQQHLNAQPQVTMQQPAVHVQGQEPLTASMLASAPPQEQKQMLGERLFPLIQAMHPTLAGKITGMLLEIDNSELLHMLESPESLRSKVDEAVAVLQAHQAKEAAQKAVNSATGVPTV
Assay [6] concerns the target T1, Polyadenylate-binding protein 1. The assay is described as follows: PABP1 MLLE–PAM2 binding inhibitor potency, dose response, biochemical, fluorescence polarization, FITC-PAM2 peptide (AID 602259). The settings on record: read-out: IC50_Mean. It counts as functional.
The nature of assay [7]: Luminescence-based cell-based high throughput dose response assay to identify activators of the DAF-12 from the parasite S. stercoralis (ssDAF-12). It counts as functional.
Assay [8] deals with T2, Oxysterols receptor LXR-beta (Homo sapiens, UniProt P55055).
T2 sequence (P55055 whole entry): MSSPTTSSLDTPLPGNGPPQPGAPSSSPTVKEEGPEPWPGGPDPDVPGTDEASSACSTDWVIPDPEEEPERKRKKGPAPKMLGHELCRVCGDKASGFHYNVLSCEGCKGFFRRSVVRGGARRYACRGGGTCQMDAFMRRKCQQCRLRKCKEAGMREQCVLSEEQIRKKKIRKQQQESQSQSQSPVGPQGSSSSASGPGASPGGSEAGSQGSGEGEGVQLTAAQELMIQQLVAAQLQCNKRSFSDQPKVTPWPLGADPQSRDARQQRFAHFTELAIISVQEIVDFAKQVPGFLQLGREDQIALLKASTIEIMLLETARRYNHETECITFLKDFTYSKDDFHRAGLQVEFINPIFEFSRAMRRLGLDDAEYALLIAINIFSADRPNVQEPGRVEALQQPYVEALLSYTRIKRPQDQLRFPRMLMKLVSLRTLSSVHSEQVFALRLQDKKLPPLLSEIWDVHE
It counts as functional, cell-based.

The target in assay [9] is T2, Oxysterols receptor LXR-beta. The assay is described as follows: LXR agonists, Gal4 luciferase reporter, dose response, counter-screen for ssDAF-12 agonist project, cell-based, luminescence, HEK293, S. stercoralis campaign (AID 720737). Conditions: read-out: IC50 (the source's name). It counts as functional. A general note: A reporter such as luciferase makes a cellular process visible.

The nature of assay [10]: HepG2 cell cytotoxicity, dose response, cytotoxicity control, cherry-picked samples (AID 1159577). It counts as functional, cell-based.
The nature of assay [11]: P. falciparum Dd2 growth inhibitors, dose response, SYBR Green, cherry-picked samples (AID 1159567). It counts as functional, cell-based.
Assay [12] is described as follows: HepG2 cell cytotoxicity, dose response, cytotoxicity control, ATP luminescence, cherry-pick, set 6 (AID 1053125). It counts as functional, cell-based.
The target of assay [13] is Heat shock protein HSP 90-alpha (Homo sapiens, UniProt P07900). It counts as functional, organism-based.
A short description of assay [14]: Luminescence Cell-Based Dose Retest to Confirm Inhibitors of Cancer Stem Cells. [Related pubchem assays (depositor defined):AID2717, AID2721]. The settings on record: Homo sapiens. It counts as functional.
The target of a further assay is Beta-galactosidase (Escherichia coli, UniProt Q8VNN2). As to the kind of experiment: beta-galactosidase enzyme inhibitors and activators, dose response, artefact control for CCR6 antagonist project, biochemical, E. coli enzyme, set 3 (AID 504712). It counts as functional.
The test system of assay [15] is BJ. As to the kind of experiment: cytotoxicity toward Ras-transformed BJeLR fibroblasts, dose response, cell-based, alamar blue fluorescence, cherrypicked samples (AID 2631).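 Also: confirmatory dose-response assay in RAS-dependent BJ fibroblasts engineered with TERT, LT and ST, with cytotoxicity read by fluorescence.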 The settings on record: Homo sapiens. It counts as functional.
The subject of assay [16] is BJ. The assay is described as follows: cytotoxicity toward BJ-TERT-LT-ST fibroblasts, dose response, cell-based, RAS-independent, luminescence (AID 1935).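 Also: BJ fibroblasts immortalized with TERT plus LT and ST oncogenes.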 It counts as functional. The settings on record: Homo sapiens.
Assay [17] in a line: A549 cell cytotoxicity, dose response, cytotoxicity control, plate reader, cherry-pick, antagonist series (AID 743412). It counts as functional, cell-based.
Assay [18] can be described thus: cytotoxicity toward DRD oncogenic fibroblasts, dose response, cell-based, non-viral oncogenic, luminescence (AID 1934). It counts as functional. The settings on record: Homo sapiens.
Assay [19] can be described thus: MC4R antagonists, dose response, counter-screen for LGR2 antagonist project, cell-based, plate reader, cherry pick (AID 743444).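 Also: transfected HEK 293 cells stimulated with alpha-MSH peptide; potency of inhibitors of the alpha-MSH evoked signal.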 It counts as functional. Background: The purpose of a counterscreen is to sort out artefacts and off-target activity.
The next assay deals with INS1. The assay is described as follows: beta cell apoptosis inhibitors, cytokine rescue, dose response, luminescence, retest (AID 449756).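 Also: cell death triggered by IL-1 beta plus TNF-alpha plus IFN-gamma mixture; protective hits raise ATP signal compared with cytokine alone wells.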 It counts as functional, cell-based. The settings on record: Rattus norvegicus.
Assay [20] can be described thus: Luminescence Cell-Based Dose Confirmation HTS to Identify Inhibitors of Platelet Dense Granule Release. [Related pubchem assays: 1663 (Primary HTS), 1678 (Summary of Project)]. It counts as functional.
Assay [21] in a line: LGR2 antagonists, dose response, cell-based, HEK293, CRE-luciferase reporter, cherry pick, set 2 (AID 743343).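 Also: transfected cells were stimulated with diluted bursicon conditioned medium after compound addition.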 It counts as functional.
Assay [22] concerns the target Luciferin 4-monooxygenase (Photinus pyralis, UniProt P08659). The assay is described as follows: firefly luciferase enzyme inhibitors, dose response, biochemical, luminescence (AID 1891).
The nature of assay [23]: HEK293 cell cytotoxicity, dose response, cytotoxicity control, plate reader, cherry-picked samples (AID 743446). It counts as functional, cell-based.
The nature of assay [24]: HepG2 cell cytotoxicity, dose response, cytotoxicity control, plate reader, cherry-pick, antagonist series (AID 743416). It counts as functional, cell-based.
Assay [25] has as its system BJ. As to the kind of experiment: cytotoxicity toward BJ-TERT fibroblasts, dose response, cell-based, RAS-independent, luminescence (AID 1933). It counts as functional. Conditions: Homo sapiens.
Another assay has as its target Estrogen receptor beta (Homo sapiens, UniProt Q92731).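 Also: recombinant ER-beta bound to coactivator SRC1 peptide in presence of estradiol agonist; inhibitors block coactivator peptide binding and lower the FRET signal.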
For the next assay, the target named is T3, Estrogen receptor (Homo sapiens, UniProt P03372).
T3 sequence (P03372 whole entry): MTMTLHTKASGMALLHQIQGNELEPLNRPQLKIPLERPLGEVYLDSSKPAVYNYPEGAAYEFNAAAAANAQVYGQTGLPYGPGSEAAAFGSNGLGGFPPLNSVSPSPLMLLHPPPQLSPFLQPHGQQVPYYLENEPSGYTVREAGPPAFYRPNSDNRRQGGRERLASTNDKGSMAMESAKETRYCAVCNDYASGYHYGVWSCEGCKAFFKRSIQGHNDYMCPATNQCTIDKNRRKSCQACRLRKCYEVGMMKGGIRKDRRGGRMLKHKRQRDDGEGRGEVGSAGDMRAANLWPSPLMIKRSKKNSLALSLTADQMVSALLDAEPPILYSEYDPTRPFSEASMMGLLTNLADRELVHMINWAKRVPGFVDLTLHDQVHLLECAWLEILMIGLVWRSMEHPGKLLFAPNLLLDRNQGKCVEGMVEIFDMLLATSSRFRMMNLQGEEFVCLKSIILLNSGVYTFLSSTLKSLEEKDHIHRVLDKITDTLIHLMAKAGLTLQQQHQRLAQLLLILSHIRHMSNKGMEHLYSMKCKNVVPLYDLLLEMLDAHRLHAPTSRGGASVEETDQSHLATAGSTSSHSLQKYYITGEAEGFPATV

Calls of active or inactive are those of the source. Some results are limits rather than exact numbers.

Cytochrome P450 2C9, sequence (P11712 whole entry): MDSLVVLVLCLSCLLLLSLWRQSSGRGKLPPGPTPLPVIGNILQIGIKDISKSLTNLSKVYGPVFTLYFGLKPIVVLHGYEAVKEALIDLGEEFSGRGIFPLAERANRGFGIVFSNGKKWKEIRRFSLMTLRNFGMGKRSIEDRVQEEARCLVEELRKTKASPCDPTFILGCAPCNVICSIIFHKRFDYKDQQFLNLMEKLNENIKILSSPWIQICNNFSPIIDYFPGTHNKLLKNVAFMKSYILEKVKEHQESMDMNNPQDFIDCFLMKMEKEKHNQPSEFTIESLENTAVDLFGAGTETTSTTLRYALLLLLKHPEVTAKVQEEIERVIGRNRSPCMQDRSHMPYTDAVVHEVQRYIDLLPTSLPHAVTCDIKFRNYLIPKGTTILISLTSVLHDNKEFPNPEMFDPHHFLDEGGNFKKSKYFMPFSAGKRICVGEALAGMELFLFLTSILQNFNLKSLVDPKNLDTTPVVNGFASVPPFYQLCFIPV

For `COc1cccc(NC(=O)Nc2nnc(-c3ccccc3SCc3ccccc3)s2)c1`, at SUMO-activating enzyme, the IC50 was 56.6 µM (active).

The AC50 is the concentration giving half of the maximal activity seen. For the compound `O=C(CSc1nnc2c3ccccc3c3ccccc3c2n1)Nc1ccccc1`, the EC50 in assay [1] is on record as 31.7 µM (not active); in assay [2], 28.6 µM (not active); in assay [3], 39.1 µM (not active). At Cytochrome P450 2D6, the AC50 was 7.94 µM (inconclusive).

As to `CCCCCCCC1=CC2=CC(=O)C(C)(OC(C)=O)C(=O)C2=CN1CCc1ccccc1` (stereo unspecified), the half-maximal activity concentration (AC50) is 6.31 µM (inconclusive) on Cytochrome P450 2C9 and 3.98 µM (inconclusive) on Cytochrome P450 3A4.

Turning to `COc1ccc(NC(=O)COC(=O)c2cccc(S(=O)(=O)N(C)C)c2)cc1`, the EC50 in assay [1], in assay [2] and in assay [3] was > 79.4 µM (not active) each time.

Turning to `O=C(CC1SC(=O)N(c2ccccc2)C1=O)Nc1ccccc1` (stereo unspecified), the IC50 in [4] is 46.7 µM (inactive); in [5], > 66 µM (inactive); in [6], > 66 µM (inactive).

As to `Cc1c(C(=O)Nc2nccs2)oc2ccccc12`, in [7], the IC50 was > 67.6 µM (inactive). Besides, the EC50 in assay [8] and in assay [9] was > 67.6 µM (inactive) in each case.

With `CCCC#Cc1ccc([C@H]2[C@@H](CO)N3CCCCN(C(=O)NC4CCCC4)C[C@H]23)cc1`, the values for the AC50 in assay [10] and in [11] were 12.6 µM (active) and 5.27 µM (active), respectively.

Turning to `CN(C)c1ccc2c(=O)c3ccccc3oc2n1`, the EC50 in assay [8] is > 67.6 µM (inactive).

`CCOc1ccc(-n2c(SCC(=O)Nc3nccs3)nnc2-c2ccoc2C)cc1`: the AC50 in assay [12] was > 52 µM (inactive).

In the case of `O=C1C=CC(=O)N1c1ccc(OC(F)F)cc1`, the AC50 in assay [13] was 1.65 µM (active); in [14], 3.12 µM (active). The IC50 at Beta-galactosidase was > 66.6 µM (inactive).

On to `Clc1ccccc1Nc1nnc(-c2ccncc2)s1`, for which the EC50 was > 133 µM (inactive) with BJ [15]; > 67.5 µM (inactive) in [8]; > 150 µM (inconclusive) with BJ [16]; 5.43 µM (active) in [18]; 2.56 µM (active) in assay [20]; 799 nM (active) in assay [22]. Moreover, the EC50 in the assay on BJ [25] was 7.07 µM (active). Besides, the AC50 in assay [17] is 4.79 µM (active); in [19], 8 µM (active); in the assay with INS1 it was 4.99 µM (active); in [21], 5.65 µM (active); in assay [23], 4.19 µM (active); in assay [24], 8.92 µM (active).

As to `COc1ccc(S(=O)(=O)N2CC[C@@H]3[C@@H](CO)Nc4ccc(-c5ccc(C#N)cc5)cc4[C@@H]32)cc1`, the results for the concentration at half-maximal activity (AC50) in assay [10] and in assay [11] were 3.16 µM (active) and 6.28 µM (active), respectively.

As to `CC(C)(C)c1cc(O)ccc1O` [E319], the AC50 on Cytochrome P450 2C9 is 7.94 µM (inconclusive).

With `O=C(c1cc(-c2ccco2)on1)N1CCCc2ccccc21`, the IC50 at Estrogen receptor beta and at Estrogen receptor was > 50 µM (not active) each time.
